Reference: patent US7973162B2, “Modulators of muscarinic receptors” (Vertex Pharmaceuticals Incorporated, priority 2007, dated 2011)

Legend:
Assay type in all cases: cell-based
[1] = biological target: T1, M3 muscarinic receptor (Homo sapiens, UniProt P20309); assay: Functional mobilization of intracellular calcium (FLIPR), M3-CHO cells; conditions: for M3 Efficacy / Emax: 100% efficacy = maximum response obtained with the Carbachol control; for EC50: CHO cells expressing M3, calcium mobilization
T1 construct: expressed in transfected cells; host or cells: CHO (M3-CHO)
T1 sequence (P20309 whole entry): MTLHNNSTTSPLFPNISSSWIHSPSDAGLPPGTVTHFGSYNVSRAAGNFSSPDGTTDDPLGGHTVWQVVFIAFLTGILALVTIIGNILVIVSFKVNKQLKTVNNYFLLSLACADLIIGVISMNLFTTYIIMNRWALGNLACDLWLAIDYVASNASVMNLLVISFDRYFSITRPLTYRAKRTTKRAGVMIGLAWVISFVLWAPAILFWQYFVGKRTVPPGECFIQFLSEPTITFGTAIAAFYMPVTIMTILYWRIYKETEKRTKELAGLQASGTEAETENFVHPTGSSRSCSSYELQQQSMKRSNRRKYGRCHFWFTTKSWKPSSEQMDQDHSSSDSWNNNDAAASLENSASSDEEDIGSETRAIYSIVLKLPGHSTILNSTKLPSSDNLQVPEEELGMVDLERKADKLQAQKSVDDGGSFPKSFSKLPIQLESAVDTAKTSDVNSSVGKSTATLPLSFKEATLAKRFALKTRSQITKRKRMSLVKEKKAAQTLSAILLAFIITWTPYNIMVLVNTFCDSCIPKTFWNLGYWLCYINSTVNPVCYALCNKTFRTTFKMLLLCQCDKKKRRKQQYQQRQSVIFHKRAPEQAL
Protocol: (§1) Functional Mobilization of Intracellular Calcium to Determine Muscarinic Receptor Activity:
(§2) CHO cells expressing muscarinic receptors (M1 to M5) are grown as monolayers in tissue culture flasks at 37° C. in a humidified atmosphere containing 5% CO2 and passaged every 3-5 days. The growth media is Dulbecco's modified eagles medium (DMEM, Gibco Cat# 12430-054), containing 25 mM Hepes and supplemented with Fetal Bovine Serum (Hyclone, cat #SH30071.03), 0.1 mM of MEM non-essential amino acids (GIBCO, Cat #11140-050), 1 mM MEM Sodium Pyruvate (GIBCO Cat #11360-070) and 100 units/ml of Penicillin G and 100 μg/ml of Streptomycin (GIBCO Cat #15140-122). The recombinant muscarinic receptor cell lines are grown under antibiotic pressure with media containing 25 μg/ml zeocin and 500 μg/ml G418 (M1-CHO), 4 μg/ml puromycin, 50 μg/ml zeocin and 2.5 μg/ml blasticidin (M2 and M4-CHO) or 50 μg/ml zeocin and 4 μg/ml puromycin (M3 and M5-CHO).
(§3) Cells are harvested at 80-90% confluence using Versene (GIBCO Cat #15040-066), collected by centrifugation and seeded 18-24 hrs prior to running the calcium assay at a density of 5,000-10,000 cells/well in […], clear-bottomed 384-well plates (BD Biocoat, poly-D-lysine, Cat#356663). The day of the experiment, the cells are washed with a plate washer (Bioteck Instruments, ELX 405) using bath1 buffer (140-mM NaCl, 4.5-mM KCl, 2-mM CaCl2, 1-mM MgCl2, 10-mM Hepes-Na, 10-mM Glucose, pH 7.4, with NaOH) containing 1 mM Probenecid. Next, the calcium dye Fluo-3 (25 μl/well of Fluo-3 AM at 4 μM, Molecular Probes F-1241, in Bath 1 buffer containing 1 mM Probenecid) is added to the 25 μl of Bath 1 remaining in each well after the plate wash and the dye is loaded at 37° C. in the tissue culture incubator for 60-90 min. The fluorescent dye is removed using the plate washer with Bath 1 containing 1 mM Probenecid, leaving 25 μl/well of this solution after the wash. Alternatively, cells can be loaded with the calcium indicator from Molecular Devices (Calcium 3 Assay Reagents, Cat #R7181) adding 5 μl of a 5× solution dye in Bath 1 containing 1 mM Probenecid (10 ml per dye flask cat #R7182 to generate a solution 20×) to 20 μl of the same buffer. After loading for 60 min, the experiment can be run without having to remove the dye.
(§4) Compounds are prepared at a 2× fold concentration in a 96-well plate (round bottom, Costar Corning cat #3656), by reconstituting the pre-spotted compounds in bath 1 containing 1 mM probenecid. The final concentration DMSO is 0.5%, and the amount of DMSO is normalized across the assay plate. To determine an agonist action of the compounds on muscarinic receptors, the reconstituted compounds are added (25 μl compound/well) to the cell assay plate (containing 25 μl/well) using the multi-channel robotic system of the FLIPR 3 Instrument (Molecular Devices, Sunnyvale, Calif.). To determine a functional inhibitory action of the compounds on muscarinic receptors, the reconstituted compounds are added (25 μl compound/well) to the assay plate and pre-incubated for 15 min prior to adding 25 μl of Carbachol at 3× the EC80 for each muscarinic subtype. Alternatively, the compounds can be co-applied simultaneously with the agonist. In both assay modes, the fluorescence is recorded for 60 sec (excitation wavelength is […] and emission wavelength 540 nm) using the FLIPR 3 instrument.
(§5) The potency, efficacy and selectivity of the muscarinic compounds were evaluated by screening the compound activity across the whole family (M1 to M5 cells). Compounds were also screened for activity on other proteins such as other GPCRs and ion channels to determine selectivity on M4 receptors.
(§6) Examples of activities and efficacies of the muscarinic compounds of formulae (I, Ia, and Ib) on modulating M1 and M4 receptors are shown below in Table 3. […]

[2] = biological target: T2, M4 muscarinic receptor (Homo sapiens, UniProt P08173); assay: Functional mobilization of intracellular calcium (FLIPR), M4-CHO cells; conditions: for M4 Efficacy / Emax: 100% efficacy = maximum response obtained with the Carbachol control; for EC50: CHO cells expressing M4, calcium mobilization
T2 construct: expressed in transfected cells; host or cells: CHO (M4-CHO)
T2 sequence (P08173 1-479): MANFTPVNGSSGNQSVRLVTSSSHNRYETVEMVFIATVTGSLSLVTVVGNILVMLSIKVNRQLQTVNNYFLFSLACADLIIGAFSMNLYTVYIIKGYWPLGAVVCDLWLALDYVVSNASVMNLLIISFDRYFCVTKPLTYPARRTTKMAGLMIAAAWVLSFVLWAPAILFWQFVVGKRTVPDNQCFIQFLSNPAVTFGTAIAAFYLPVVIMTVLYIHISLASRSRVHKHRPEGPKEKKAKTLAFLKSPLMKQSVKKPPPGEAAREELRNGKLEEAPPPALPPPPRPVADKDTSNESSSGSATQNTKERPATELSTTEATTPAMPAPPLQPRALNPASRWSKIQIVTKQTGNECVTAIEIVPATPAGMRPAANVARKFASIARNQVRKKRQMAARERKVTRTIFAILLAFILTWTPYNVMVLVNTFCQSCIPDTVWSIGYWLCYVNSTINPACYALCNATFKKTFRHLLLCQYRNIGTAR
Protocol: as §1, §2, §3, §4, §5, §6

[3] = biological target: T3, M1 muscarinic receptor (Homo sapiens, UniProt P11229); assay: Functional mobilization of intracellular calcium (FLIPR), M1-CHO cells; conditions: for M1 Efficacy / Emax: 100% efficacy = maximum response obtained with the Carbachol control; for EC50: CHO cells expressing M1, calcium mobilization
T3 construct: expressed in transfected cells; host or cells: CHO (M1-CHO)
T3 sequence (P11229 1-460): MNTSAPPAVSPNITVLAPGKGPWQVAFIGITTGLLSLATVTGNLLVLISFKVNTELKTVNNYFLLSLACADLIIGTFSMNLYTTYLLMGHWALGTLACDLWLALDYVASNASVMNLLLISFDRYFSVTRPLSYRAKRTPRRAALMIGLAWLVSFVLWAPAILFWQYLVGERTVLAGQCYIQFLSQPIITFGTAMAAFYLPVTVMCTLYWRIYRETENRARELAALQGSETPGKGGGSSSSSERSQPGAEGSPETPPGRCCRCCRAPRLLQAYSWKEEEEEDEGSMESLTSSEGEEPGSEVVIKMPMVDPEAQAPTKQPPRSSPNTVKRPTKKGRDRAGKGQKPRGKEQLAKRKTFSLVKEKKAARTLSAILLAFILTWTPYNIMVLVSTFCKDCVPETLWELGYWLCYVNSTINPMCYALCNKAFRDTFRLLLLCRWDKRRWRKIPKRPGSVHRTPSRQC
Protocol: as §1, §2, §3, §4, §5, §6

[4] = biological target: T4, M2 muscarinic receptor (Homo sapiens, UniProt P08172); assay: Functional mobilization of intracellular calcium (FLIPR), M2-CHO cells; conditions: for M2 Efficacy / Emax: 100% efficacy = maximum response obtained with the Carbachol control; for EC50: CHO cells expressing M2, calcium mobilization
T4 construct: expressed in transfected cells; host or cells: CHO (M2-CHO)
T4 sequence (P08172 1-466): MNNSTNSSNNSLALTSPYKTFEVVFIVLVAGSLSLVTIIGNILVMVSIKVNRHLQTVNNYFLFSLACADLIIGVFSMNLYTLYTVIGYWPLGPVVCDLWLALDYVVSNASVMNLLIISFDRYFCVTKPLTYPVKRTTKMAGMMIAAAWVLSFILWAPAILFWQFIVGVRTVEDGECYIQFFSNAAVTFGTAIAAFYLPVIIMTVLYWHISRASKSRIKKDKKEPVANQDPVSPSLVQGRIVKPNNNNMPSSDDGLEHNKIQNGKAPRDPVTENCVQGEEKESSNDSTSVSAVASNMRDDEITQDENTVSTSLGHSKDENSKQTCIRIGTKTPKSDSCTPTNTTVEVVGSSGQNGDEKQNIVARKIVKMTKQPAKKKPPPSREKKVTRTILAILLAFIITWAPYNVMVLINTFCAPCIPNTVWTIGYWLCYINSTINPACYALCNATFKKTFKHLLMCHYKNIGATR
Protocol: as §1, §2, §3, §4, §5, §6

Row | SMILES | M3 Efficacy [1] | EC50 [1] [µM] | M4 Efficacy [2] | EC50 [2] [µM] | M1 Efficacy [3] | EC50 [3] [µM] | M2 Efficacy [4] | EC50 [4] [µM] | Emax [1] [%] | Emax [2] [%] | Emax [3] [%] | Emax [4] [%]
1 | CN1C(=O)C[C@@H]2CC3(CCN(C4CCCCC4)CC3)c3ccccc3[C@@H]21 [Compound 24] | + (efficacy was calculated to be less than 25%) | > 5 | ++ (efficacy was calculated to be from 100% to 25%) | < 2 | ++ (efficacy was calculated to be from 100% to 25%) | > 5 | + (efficacy was calculated to be less than 25%) | > 5 |  |  |  | 
2 | CN1C(=O)C[C@@H]2CC3(CCN(C4CC5CCC(C5)C4)CC3)c3ccccc3[C@@H]21 (some centres unmarked) [Compound 15] |  | > 5 |  | < 2 |  | 2 to 5 |  | > 5 | < 25 | 25 to 100 | 25 to 100 | < 25
3 | CCOC(=O)N1CCC(N2CCC3(CC2)C[C@H]2CC(=O)N[C@H]2c2ccccc23)CC1 [Compound 9] |  | < 2 |  | < 2 |  | < 2 |  | < 2 | 25 to 100 | 25 to 100 | 25 to 100 | 25 to 100
4 | CC(=O)N1CC[C@@H]2CC3(CCN(C4CCCCC4)CC3)c3ccccc3[C@@H]21 [Compound 27] |  | > 5 |  | > 5 |  | > 5 |  | > 5 | < 25 | < 25 | < 25 | < 25
5 | O=C1C[C@@H]2CC3(CCN(C[C@@H]4C[C@H]5C=C[C@H]4C5)CC3)c3ccccc3[C@@H]2N1 [Compound 25] |  | > 5 |  | < 2 |  | < 2 |  | < 2 | 25 to 100 | 25 to 100 | 25 to 100 | 25 to 100
6 | c1ccc2c(c1)C1OCCC1CC21CCN(C2C[C@H]3CC[C@@H]2C3)CC1 (some centres unmarked) [Compound 6] |  | > 5 |  | < 2 |  | > 5 |  | > 5 | < 25 | 25 to 100 | < 25 | < 25
7 | COCCN1C(=O)C[C@@H]2CC3(CCN(C4CCCCC4)CC3)c3ccccc3[C@@H]21 [Compound 16] |  | > 5 |  | < 2 |  | > 5 |  | > 5 | < 25 | 25 to 100 | < 25 | < 25
8 | c1ccc2c(c1)C1OCCC1CC21CCN(C2CC3CCC(C3)C2)CC1 (centres unmarked) [Compound 8] |  | > 5 |  | < 2 |  | > 5 |  | > 5 | < 25 | 25 to 100 | 25 to 100 | < 25
9 | CCOC(=O)N1CCC(N2CCC3(CC2)C[C@H]2CC(=O)N(C)[C@H]2c2ccccc23)CC1 [Compound 12] |  | > 5 |  | < 2 |  | < 2 |  | < 2 | < 25 | 25 to 100 | 25 to 100 | 25 to 100
10 | O=C1C[C@@H]2[C@H](N1)c1ccccc1C21CCN(C[C@H]2C[C@@H]3CC[C@@H]2C3)CC1 [Compound 30] |  | > 5 |  | < 2 |  | < 2 |  | 2 to 5 | < 25 | 25 to 100 | 25 to 100 | 25 to 100
11 | c1ccc2c(c1)C1OCCC1CC21CCN(C2CCCCCC2)CC1 (centres unmarked) [Compound 11] |  | > 5 |  | < 2 |  | 2 to 5 |  | > 5 | < 25 | 25 to 100 | 25 to 100 | < 25
12 | CCOC(=O)N1CCC(N2CCC3(CC2)C[C@H]2CC(=O)N[C@H]2c2ccccc23)CC1 [Compound 17] | + (efficacy was calculated to be less than 25%) | > 5 | ++ (efficacy was calculated to be from 100% to 25%) | < 2 | ++ (efficacy was calculated to be from 100% to 25%) | < 2 | ++ (efficacy was calculated to be from 100% to 25%) | < 2 |  |  |  | 
13 | CN1C(=O)C[C@@H]2CC3(CCN(C4CCCCCC4)CC3)c3ccccc3[C@@H]21 [Compound 29] | + (efficacy was calculated to be less than 25%) | > 5 | ++ (efficacy was calculated to be from 100% to 25%) | < 2 | ++ (efficacy was calculated to be from 100% to 25%) | < 2 | ++ (efficacy was calculated to be from 100% to 25%) | < 2 |  |  |  | 
